Reference: patent publication US20230090255A1, “MAGL INHIBITOR, PREPARATION METHOD THEREFOR AND USE THEREOF” (LUNAN PHARMACEUTICAL GROUP CORPORATION, priority 2019, published 2023)
Each block holds one compound with its values, some of them ahead of it.

Columns and labels:
[1] = molecular target: T1, recombinant human protein MAGL (Homo sapiens, UniProt Q99685); test: MAGL enzyme analysis (Cayman MAGL inhibitor screening kit); assay type: biochemical; details: 4-nitrophenylacetic acid substrate, absorbance 410 nm, read-out: MAGLXIC50
T1 construct: purchased Cayman
T1 sequence (Q99685 1-303): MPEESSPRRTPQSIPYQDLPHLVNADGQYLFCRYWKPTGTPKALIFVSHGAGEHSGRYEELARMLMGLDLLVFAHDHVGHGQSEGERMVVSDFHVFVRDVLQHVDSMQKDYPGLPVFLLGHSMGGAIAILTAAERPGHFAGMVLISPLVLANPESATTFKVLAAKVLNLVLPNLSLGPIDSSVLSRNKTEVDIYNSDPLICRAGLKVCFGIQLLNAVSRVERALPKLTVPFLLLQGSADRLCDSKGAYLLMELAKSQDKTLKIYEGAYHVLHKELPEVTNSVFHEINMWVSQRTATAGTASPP

[2] = tested on: mice forced swimming test; test: Mice forced swimming test; assay type: in vivo, ICR mice; details: forced swimming, 6 min; 5 mg/kg intragastric once per day 10 d, 1 h after final administration
Procedure: Male ICR mice having a body weight of 18-22 g. The animals were active on a schedule of normal illumination for 12 h and in the dark for 12 h. Environmental temperature and relative humidity were relatively kept for 22±1° C. and 55±5%.
There were 7 groups of laboratory mice, 10 pieces each group, set as a control group (normal saline), a positive control group (fluoxetine hydrochloride capsule, 5 mg/kg), 5 MAGLZ-II series of administration treatment groups: MAGLZ-II-06, MAGLZ-II-07, MAGLZ-II-11, MAGLZ-II-17 and MAGLZ-II-18, respectively, with an administration concentration of 5 mg/kg.
All medicaments were used once per day via intragastric administration with a dose of 20 mL/kg (body weight), lasting for 10 d. 1 h later after the final administration, the detection of animal behaviors was started.
Mice forced swimming test was performed according to the method established by Porsolt (Porsolt R D. Behavioural despair in mice: A primary screening test for antidepressants[J]. Arch. Int. Pharmacolodyn. 1977, 229). […] Each mouse was judged as still when stopped struggling, kept suspension in water and only made necessary movement to keep the head above the water.
All data are shown by x̅±SD, and the comparison among groups is analyzed by one-way variance.

[3] = tested on: irritable bowel syndrome rats; test: Irritable bowel syndrome rats induced by early maternal separation; assay type: in vivo, SD rats; parameters: AWR scoring: scale not given here; details: for Colon 5-HT / Serum 5-HT / AWR scoring: IBS rats; for 5-HT level in colon and serum, in words / AWR scoring, in words: compared with the model group
Procedure: The newborn SD male rats were separated from the mother rat in lactation period for 3 h every day on the 2nd to the 21st day after the birth of the newborn SD rats, namely, the mother rat in lactation period was taken out of the cage at 8:30 a.m., and then the newborn rats were removed from the initial cage and put to another separate cage, then the cage was transferred to an adjacent room, then the newborn rats were returned to the initial cage 3 h later, namely, at 11:30 such that the newborn rats and the mother rat got together; the newborn rats were weaned on the 22nd day after birth and separated from the initial cage on the 30th day, grouped on the 60th day, and administered, 20 d in total.
Intragastric administration was performed within the administration period once a day with continuous administration for 20 d.
Test indicators: abdominal withdrawal reflex (AWR); test method: rats were fasted 18 h before the experiment and drank water freely, and narcotized with diethyl ether; then an air sac coated with paraffin oil was inserted into the rats’ colorectum for 4.0 cm, and a catheter outside the anus was fixed at the root of the rat tail with an adhesive tape, and connected with an injection syringe and a sphygmomanometer via three links. The rats were put to an organic glass inspection box (20 cmx12 cm×9 cm), after the rats were awake and fully adapted to the environment for 30 min, the experiment was started. 20, 40 and 60 mm Hg of pressure were respectively applied on the rats, and continuous expansion was performed for 20 s each time with a stimulus interval of 4 min; each pressure was performed for 3 times repeatedly for AWR scoring.
At the end of the experiment, the animals were dissected and weighed, and narcotized to take blood, then the content of 5-HT in serum was determined by high performance liquid chromatography. […] slightly with 0.5% sodium carboxymethylcellulose, and then sucked dry with a filter paper, and placed into a cryogenic tube, and preserved at -20° C. for further use, […] chromatography.

ulcerative colitis mice = test: Mice ulcerative colitis (DSS); assay type: in vivo, BALB/c mice; details: for Total times of hematochezia within the four periods / Colon length / IL-1 content: DSS mice; for Colon length: four periods; for IL-1 content: serum, ELISA; for IL-1 content, in words / colon length, in words / total times of hematochezia, in words: compared with the model group
From the text: Healthy male SPF-level BALB/c mice (8-week old and body mass: (20±2) g).
Modeling: the mice were randomly divided into […] at the end of the quarantine, 10 pieces for each group. The mice in the normal group drank normal water freely, and the rest groups of mice drank 1.0%-1.5% DSS solution freely for modeling, 7 d later after modeling, the mice in the modeling group drank normal water freely for 7 d, and 14 d served as a modeling period for four continuous periods, and the mice in the modeling group were administered at the same time.
End point of the experiment: experimental administration was performed for four periods, and dissection was performed on the 3rd and 4th day of the recovery period of the 4th period.
Test indicators: the mice were weighed twice a week after the beginning of the administration; diarrhea and hematochezia of the mice were observed, and times of hematochezia were recorded.
At the end of the experiment, the mice were dissected and weighed, and narcotized to take blood, then serum was preserved at -80° C. Spleen was taken and weighed to calculate the spleen index. The content of IL-1β in serum was detected via ELISA. Colorectum was cut and taken to measure the length of colorectum, then immobilized by formaldehyde and dyed by HE to detect the pathological change.

[4] = high dose 30 mg/kg ig 20 d, 20 mm Hg
[5] = high dose 30 mg/kg ig 20 d, 40 mm Hg
[6] = high dose 30 mg/kg ig 20 d, 60 mm Hg
[7] = low dose 7.5 mg/kg ig 20 d, 20 mm Hg
[8] = low dose 7.5 mg/kg ig 20 d, 40 mm Hg
[9] = low dose 7.5 mg/kg ig 20 d, 60 mm Hg
[10] = middle dose 15 mg/kg ig 20 d, 20 mm Hg
[11] = middle dose 15 mg/kg ig 20 d, 40 mm Hg
[12] = middle dose 15 mg/kg ig 20 d, 60 mm Hg

IC50 [1]: 96 nM
Compound: O=C(Nc1cccc(Cl)c1)C1CCN(C(=O)c2cccc(O)c2)CC1 [MAGLZ-II-11]
Accumulated immobility time [2]: 73.57±27.28 S
Colon 5-HT ([3]; high dose 30 mg/kg ig 20 d): 12.00±2.93^∗∗∗ µg/mg
Serum 5-HT ([3]; high dose 30 mg/kg ig 20 d): 23.82±6.34^∗∗∗ µg/ml
AWR scoring [3, 4]: 1.39±0.30^∗∗ ∗
AWR scoring [3, 5]: 1.92±0.33^∗∗∗
AWR scoring [3, 6]: 2.86±0.26^∗∗∗
Colon 5-HT ([3]; low dose 7.5 mg/kg ig 20 d): 16.24±2.34^∗∗ µg/mg
Serum 5-HT ([3]; low dose 7.5 mg/kg ig 20 d): 31.75±5.33^∗∗ µg/ml
AWR scoring [3, 7]: 2.50±0.38^∗
AWR scoring [3, 8]: 3.00±0.49^∗∗
AWR scoring [3, 9]: 3.60±0.22^∗∗
Colon 5-HT ([3]; middle dose 15 mg/kg ig 20 d): 14.33±2.10^∗∗∗ µg/mg
Serum 5-HT ([3]; middle dose 15 mg/kg ig 20 d): 29.47±4.91^∗∗∗ µg/ml
AWR scoring [3, 10]: 2.02±0.57^∗∗
AWR scoring [3, 11]: 2.42±0.41^∗∗∗
AWR scoring [3, 12]: 3.03±0.37^∗∗∗
5-HT level in colon and serum, in words [3]: significantly decrease
AWR scoring, in words [3]: significantly decrease
Total times of hematochezia within the four periods (ulcerative colitis mice; high dose 30 mg/kg ig): 24.80±5.43
Colon length (ulcerative colitis mice; high dose 30 mg/kg ig): 7.68±0.75 cm
IL-1 content (ulcerative colitis mice; high dose 30 mg/kg ig): 33.83 ± 7.14 pg/mL
Total times of hematochezia within the four periods (ulcerative colitis mice; low dose 7.5 mg/kg ig): 32.00±4.94
Colon length (ulcerative colitis mice; low dose 7.5 mg/kg ig): 6.88±0.89 cm
IL-1 content (ulcerative colitis mice; low dose 7.5 mg/kg ig): 44.57 ± 10.32 pg/mL
Total times of hematochezia within the four periods (ulcerative colitis mice; middle dose 15 mg/kg ig): 27.20±5.39
Colon length (ulcerative colitis mice; middle dose 15 mg/kg ig): 7.26±0.67 cm
IL-1 content (ulcerative colitis mice; middle dose 15 mg/kg ig): 41.40 ± 9.50 pg/mL
IL-1 content, in words (ulcerative colitis mice): decrease
colon length, in words (ulcerative colitis mice): significantly increase
total times of hematochezia, in words (ulcerative colitis mice): reduce

IC50 [1]: 670 nM
Compound: O=C(Nc1cccc(Cl)c1)C1CCN(C(=O)c2cc3ccccc3[nH]2)CC1 [MAGLZ-II-18]
Accumulated immobility time [2]: 81.71±38.12 S
Colon 5-HT ([3]; high dose 30 mg/kg ig 20 d): 14.33±2.10^∗∗∗ µg/mg
Serum 5-HT ([3]; high dose 30 mg/kg ig 20 d): 30.86±5.28^∗∗∗ µg/ml
AWR scoring [3, 4]: 1.87±0.36^∗∗ ∗
AWR scoring [3, 5]: 2.6±0.54^∗∗∗
AWR scoring [3, 6]: 3.09±0.34^∗∗∗
Colon 5-HT ([3]; low dose 7.5 mg/kg ig 20 d): 21.91 ± 2.46 µg/mg
Serum 5-HT ([3]; low dose 7.5 mg/kg ig 20 d): 35.73 ± 3.32 µg/mL
AWR scoring [3, 7]: 2.59±0.33
AWR scoring [3, 8]: 3.26±0.39
AWR scoring [3, 9]: 3.65±0.23^∗
Colon 5-HT ([3]; middle dose 15 mg/kg ig 20 d): 14.89±3.19^∗∗ µg/mg
Serum 5-HT ([3]; middle dose 15 mg/kg ig 20 d): 29.12±7.05^∗∗ µg/ml
AWR scoring [3, 10]: 2.29±0.36^∗∗
AWR scoring [3, 11]: 3.01±0.40^∗∗
AWR scoring [3, 12]: 3.3±0.45^∗∗
5-HT level in colon and serum, in words [3]: significantly decrease
AWR scoring, in words [3]: significantly decrease
Total times of hematochezia within the four periods (ulcerative colitis mice; high dose 30 mg/kg ig): 32.80±4.37
Colon length (ulcerative colitis mice; high dose 30 mg/kg ig): 6.73±0.63 cm
IL-1 content (ulcerative colitis mice; high dose 30 mg/kg ig): 46.98 ± 7.56 pg/mL
Total times of hematochezia within the four periods (ulcerative colitis mice; low dose 7.5 mg/kg ig): 32.80±4.64
Colon length (ulcerative colitis mice; low dose 7.5 mg/kg ig): 6.44±0.64 cm
IL-1 content (ulcerative colitis mice; low dose 7.5 mg/kg ig): 46.15 ± 9.65 pg/mL
Total times of hematochezia within the four periods (ulcerative colitis mice; middle dose 15 mg/kg ig): 33.90±4.77
Colon length (ulcerative colitis mice; middle dose 15 mg/kg ig): 6.37±0.39 cm
IL-1 content (ulcerative colitis mice; middle dose 15 mg/kg ig): 49.01 ± 5.65 pg/mL
IL-1 content, in words (ulcerative colitis mice): decrease
colon length, in words (ulcerative colitis mice): significantly increase
total times of hematochezia, in words (ulcerative colitis mice): reduce
